Patent publication US20200038486A1, “THERAPEUTIC MEDICINE FOR FIBROUS DISEASE” (StemRIM Inc., priority 2017, published 2020)
Where no end group is shown, it is not given here.

System: 129SV/colVII homo mice (epidermolysis bullosa model mice)
Test: Forelimb finger adhesion in epidermolysis bullosa model mice
Type: in vivo
Details: from the start of treatment to Week 8

“MGKGDPKKPRGKMSSYAFFVQTCREEHKKKHPDASVNFSEFSKK [HMGB1 peptide (1-44)]” was tested, and the “body weight compared with the vehicle group” value was “no significant difference between the groups”.
